Results taken from patent EP2769723A1, “Compounds for use in inhibiting HIV capsid assembly” (priority 2013, dated 2014).
Where two headings read alike, the source gives them in different places.

Columns and labels:
[1] = Solubility observations (DMSO, ITC buffer); assay type: physicochemical
[2] = test system: wild type NL4.3 HIV-1; assay: Tissue culture infectivity test, TZM titration of supernatants from infected TZM cells; assay type: cell-based; conditions: Human immunodeficiency virus 1, TZM
Procedure: Hits selected in the YFP-screen were further evaluated in the tissue culture experiments with cells infected with the wild type NL4.3 HIV-1. The virus for infection was obtained from co-culture of MT4 cells. The MT4 cells co-culture was synchronized for one week and then used for the infection of fresh MT 4 cells. 48 hrs post-infection was the culture supernatant harvested, cleared by the filtration through […] filter and stored in -80 °C in 1 ml aliquots. Amount of virus was quantified by enzyme-linked immuno sorbent assay (ELISA) with antibodies against HIV-1 CA (3 ng of CA/ml) and blue cell assay (1x10^5 IU/ml), which gives 3 x 10^4 IU/ng of CA.
For compounds testing the TZM cells were seeded on 96-well plate in the density 5 x 10^3 cells per well. The culture media was aspirated approx. 16 hrs later and cells were infected by the wild type NLA.3 HIV-1 by addition of 50J..il of prepared virus stock diluted with 50 µl of complete DMEM. The compounds were added twice to ensure that there are not any preassembled viruses present at the time of their addition. Compounds were first added 8 hrs post-infection and then 24 hrs later. In both cases the old culture media were replaced by 100 µl of fresh complete DMEM prior to the compounds addition. Different compounds concentrations were tested, but the DMSO concentration never exceeded 1 % DMSO. As controls were used cells treated only with 1 % DMSO and cells treated with 0,1 µM Lopinavir (HIV-1 protease inhibitor). Supernatant was harvested 24 hrs after the second compound addition, i.e. 56 hrs post-infection. Harvested supernatants were immediately titrated on the fresh TZM cells in aim to perform the infectivity assay (TZM titration), or inactivated by addition of Triton X-100 to the final concentration 0.025 % for further ELISA analysis.
TZM titration was performed on the cells seeded day before on 96-well plate in the density 5 x 10^3 cells per well. The analysis was performed for each compound concentration at three different dilutions and in duplicates. The culture media was aspired and cells were lysed 48 hrs post-infection by addition of 100 µl of SteadyGlo luciferase substrate (Promega) diluted 1 : 1 by complete DMEM. The luminescence signal was measured on Luminoskan Ascent (Thermo Labsystems) after the transfer of 80 µl of lysate to the flat bottom white polystyrene assay plates (Costar).

[3] = in vitro; assay type: cell-based; conditions: human
Procedure: (§1) Cytotoxicity of selected hits tested in the assay with NL4.3 infected cells was determined by MTT test. TZM cells were seeded on the previous day on 96-well plate in the density 5 x 10^3 cells per well. The tested compounds were added in different concentrations, but the DMSO concentration never exceeded 1 % DMSO. As controls were used cells treated only with 1 % DMSO (non-toxic concentration) and cells treated with 5 % DMSO (toxic concentration). 20 µl of the CellTiter 96 Aqueous One substrate (Promega) was added to the 100 µl of culture media 48 hrs after the compounds addition and the color development was quantified 4 hrs later by measuring the absorbance at 490 nm on Saphire reader. Compounds were consider non-cytotoxic (at given concentrations) when the measured values were higher than 80 % of the value of 1 % DMSO treated cells.

[4] = target: T1, CA (Human immunodeficiency virus type 1 group M subtype B, UniProt P12493); assay: ALPHA screen (AlphaScreen): inhibition of CAI binding to CA; parameters: species or system HIV-1
T1 construct: a fusion protein of CA with glutathione-S-transferase (CA-GST)
Procedure: The AlphaScreen experiments are performed using Perkin Elmer Enspire plate reader in white 96-well ProxiPlates and PBS supplemented with 0.05% Tween20, 2mM DTT, 2% DMSO. First, Streptavidin-coated Donor beads are used to capture the CAI-biotin peptide. In the other solution, a fusion protein of CA with glutathione-S-transferase (CA-GST) is mixed with GSH Acceptor beads. Both mixtures were incubated and then mixed together. To test the ability of prepared organic compounds to inhibit the CAI binding to CA, they are screened at concentrations between 0.5-100 µM and IC50 values are calculated from the influenced signals.
Upon illumination by laser at 680 nm, Donor beads containing the photosensitizer phthalocyanine convert ambient oxygen to an excited form of singlet oxygen ^1O2. Singlet oxygen can within its half-life of ~ 4 µs diffuse approximately 200 nm in solution. If an Acceptor bead is within that proximity, which is mostly upon CA:CAI interaction, energy is transferred from the singlet oxygen to thioxene derivates within the Acceptor and signal at 520 - 620 nm is emitted.

[5] = target: HIV capsid protein (Human immunodeficiency virus type 1 group M subtype B, UniProt P12493); assay: Isothermal titration calorimetry (ITC), whole capsid protein; assay type: binding; conditions: dissociation constant
Procedure: (§2) The binding of CA ligand AMR-346 to the HIV capsid protein and its C-terminal part was monitared using a VP-ITC microcalorimeter (MicroCal Inc., Northampton, USA) at 25 °C. The solutions of reactants were prepared in 30 mM MES, pH 6.0 containing 10 % glycerol, 2 mM 2-mercaptoethanol, 2 % DMSO, and the exact concentrations of proteins were determined by amino acid analysis. […] The isothermal titration was used to estimate the ligand concentration and the binding parameters were calculated for situation when single AMR-346 molecule binds to monomer or dimer of protein, respectively. Typically, 9 µl aliquots of AMR-346 were injected stepwise into the sample cell containing 1.43 ml of 7 µM protein until saturation was achieved. The experiment was accompanied by a corresponding control experiment in which AMR-346 was injected into buffer alone. The association constants were determined by software developed by MicroCal.
The CA ligand AMR-346 binds to monomer of HIV capsid protein or its C-terminal part with dissociation constants of 230 nM or 50 nM, respectively. For the binding mode of single molecule AMR-346 toward dimeric capsid protein and its C-terminal part, the dissociation constants were estimated to be 120 nM and 26 nM, respectively. Table 4: Synthesized and tested compounds

[6] = target: HIV capsid protein C-terminal part (Human immunodeficiency virus type 1 group M subtype B, UniProt P12493); assay: Isothermal titration calorimetry (ITC), C-terminal part; assay type: binding; conditions: dissociation constant
Procedure: Upper graph: raw experimental data. Lower graph: Fit (line) to the integrated heats (full circles) from each injection, corrected for the heat of dilution of CA ligand AMR-346.
as §2
The CA ligand AMR-346 binds to monomer of HIV capsid protein or its C-terminal part with dissociation constants of 230 nM or 50 nM, respectively. […]

[7] = test system: TZM cells; assay: in vitro; assay type: cell-based; conditions: Table 4; non-cytotoxic when values higher than 80 % of 1 % DMSO treated cells
Procedure: as §1

[8] = read-out: tissue culture IC50 (µM)
[9] = Table 4, non-cytotoxic when values higher than 80 % of 1 % DMSO treated cells, read-out: toxicity LC50
[10] = Table 5, MTT cytotoxicity test, read-out: CC50
[11] = CAI-biotin peptide / CA-GST, compounds screened at 0.5-100 µM, read-out: α screen IC50

SMILES | IC50 [2, 8] | toxicity LC50 (µM) [7] | also measured
Clc1cc(Nc2nc(-c3cccnc3)nc3ccccc23)cc(Cl)c1Cl [KP-253] | – | – | solubility in DMSO [1]: insoluble in DMSO
OCc1ccc(Nc2nc(-c3cccnc3)nc3ccccc23)cc1 [KP-236] | ~10 µM | – | CC50 at 48 h [3, 9]: ~10 µM
CNc1ccc([N+](=O)[O-])cc1Nc1nc(-c2ccc(C(=O)c3ccccc3)cc2)nc2ccccc12 [OSR-77] | ~3 µM | – | IC50 [2]: 2 µM; CC50 at 48 h [3, 9]: ~7 µM; CC50 at 48 h [3, 10]: 7.1 µM
c1cncc(-c2nc(SCCSc3nc(-c4cccnc4)nc4ccccc34)c3ccccc3n2)c1 [OSR-291] | – | – | solubility in DMSO [1]: insoluble in DMSO
CN(C)c1nc(-c2cccnc2)nc2ccc(OS(C)(=O)=O)cc12 [OSR-302] | – | – | CC50 at 48 h [3, 9]: ~7 µM
CNc1ccc([N+](=O)[O-])cc1Nc1nc(-c2cccnc2)nc2ccccc12 [AMR.494] | – | – | IC50 [4, 11]: 0.9 µM; IC50 [2]: 1.8 µM; CC50 at 48 h [3, 9]: ~15 µM; CC50 at 48 h [3, 10]: 16.1 µM
O=[N+]([O-])c1ccc(Nc2nc(-c3cccnc3)nc3ccccc23)c(I)c1 [KP-108] | ~1.5 µM | – | CC50 at 48 h [3, 9]: ~20 µM
CCOC(=O)c1ccc(Nc2nc(-c3ccncc3)nc3ccccc23)cc1 [AMR.346] | ~15 µM | non-toxic | IC50 [4]: 7.2 µM; Kd ([5]; one ligand binds to monomer of HIV capsid protein, 25 °C, pH 6.0): 0.23 µM; Kd ([5]; single molecule binds to dimeric capsid protein, estimated): 0.12 µM; Kd ([6]; one ligand binds to monomer of C-terminal part, 25 °C, pH 6.0): 0.05 µM; Kd ([6]; single molecule binds to dimeric C-terminal part, estimated): 0.026 µM; solubility ([1]; 30 mM MES, pH 6.0, 10 % glycerol, 2 % DMSO, concentration required for ITC): low solubility
Fc1cc(Nc2nc(-c3cccnc3)nc3ccccc23)cc(F)c1F [OSR-199] | ~5 µM | non-toxic | IC50 [2]: 5.1 µM; CC50 at 48 h [3, 10]: 100 µM
c1cncc(-c2nc(Nc3ccc4[nH]nnc4c3)c3ccccc3n2)c1 [AMR.325] | – | – | IC50 [4, 11]: > 200 µM; IC50 [2]: 6.9 µM; CC50 at 48 h ([3]; tzm cells, Table 5, MTT cytotoxicity test, read-out: CC50): 200 µM
Fc1cc(Nc2nc(-c3ccc(I)cc3)nc3ccccc23)cc(F)c1F [KP-161] | ~10 µM | non-toxic | –
CCOP(=O)(OCC)c1cc([N+](=O)[O-])ccc1Nc1nc(-c2cccnc2)nc2ccccc12 [KP-139] | > 25 µM | non-toxic | –
O=[N+]([O-])c1ccc(F)c(Nc2nc(-c3cccnc3)nc3cc(C(F)(F)F)ccc23)c1 [OSR-178] | ~5 µM | – | IC50 [2]: 1.5 µM; CC50 at 48 h [3, 9]: ~11 µM; CC50 at 48 h [3, 10]: 5 µM
CNc1ccc(F)cc1Nc1nc(-c2ccncc2)nc2ccccc12 [AMR-558] | > 10 µM | non-toxic | –
CCN(CC)c1nc(-c2cccnc2)nc2ccccc12 [KP-237] | > 10 µM | non-toxic | –
Cl.O=C(O)c1cc(O)ccc1Nc1nc(-c2cccnc2)nc2ccccc12 [5-hydroxy-2-(2-(pyridin-3-yl)quinazolin-4-ylamino)benzoic acid hydrochloride] | – | – | solubility in DMSO [1]: insolubility in DMSO
COc1cc2c(Nc3ccc([N+](=O)[O-])cc3F)nc(-c3cccnc3)nc2c(OC)c1OC [KP-66] | ~5 µM | non-toxic | –
O=C(c1ccccc1)c1ccc(Nc2nc(-c3ccncc3)nc3ccccc23)cc1 [OSR-48] | > 25 µM | non toxic | –
c1cncc(-c2nc(NC3CC3)c3ccccc3n2)c1 [KP-216] | > 10 µM | non-toxic | –
Fc1ccc(Nc2nc(-c3cccnc3)nc3ccccc23)cc1F [KP-271] | ~10 µM | non-toxic | –
NNC(=O)c1ccc(Nc2nc(-c3cccnc3)nc3ccccc23)cc1 [KP-242] | > 10 µM | non-toxic | –
N#Cc1ccc(Nc2nc(-c3ccncc3)nc3ccccc23)cc1 [AMR-549] | > 10 µM | non-toxic | –
Clc1ccc(Nc2nc(-c3cccnc3)nc3ccccc23)c(Cl)c1Cl [KP-260] | > 10 µM | non-toxic | –
CCOc1nc(-c2cccnc2)nc2ccccc12 [OSR-236] | – | non-toxic | IC50 ([2]; Table 4, cells infected with wild type NL4.3 HIV-1, read-out: tissue culture IC50): 10 to 15 µM
CC(O)c1ccc(Nc2nc(-c3ccncc3)nc3ccccc23)cc1 (stereo not drawn) [AMR-566] | ~10 µM | non-toxic | –
COc1ccc(Nc2nc(-c3cc(F)c(F)c(F)c3)nc3ccccc23)cn1 [KP-291] | > 10 µM | non-toxic | –
c1ccc(Sc2nc(-c3cccnc3)nc3ccccc23)cc1 [OSR-290] | > 10 µM | non-toxic | –
NC(=O)c1c(F)cccc1Nc1nc(-c2ccccn2)nc2ccccc12 [OSR-85] | ~8 µM | non toxic | IC50 [2]: 6.5 µM; CC50 at 48 h [3, 10]: 125 µM
FC(F)(F)c1cccc(Nc2nc(-c3cccnc3)nc3cc(C(F)(F)F)ccc23)c1 [OSR-201] | ~8 µM | non-toxic | IC50 [2]: 8.5 µM; CC50 at 48 h [3, 10]: 25 µM
Fc1cc(Nc2ncnc3ccccc23)cc(F)c1F [KP-152] | ~17 µM | non-toxic | –
